For the assay, the target named is T1, human cloned 5-HT6 receptors (Homo sapiens, UniProt P50406).
T1 construct: expressed in transfected cells; host or cells: Hela cells
Put plainly: 5-HT6 binding affinity, [3H]-LSD displacement in membranes of Hela cells. To be noted: for inhibition at 0.1 µM: test compound dose 100 nM; for inhibition at 0.1 µM / inhibition at 1 µM / inhibition at 0.01 µM: [3H]-LSD 3.0 nM; for inhibition at 1 µM: test compound dose 1000 nM, read-out: % Inhibition; for inhibition at 0.01 µM: test compound dose 10 nM. As for the experimental part: The affinity of test compounds for the serotonin 5-HT6 receptor is evaluated in the following manner. Cultured Hela cells expressing human cloned 5-HT6 receptors are harvested and centrifuged at low speed (1,000×g) for 10.0 min to remove the culture media. The harvested cells are suspended in half volume of fresh physiological phosphate buffered saline solution and recentrifuged at the same speed. This operation is repeated. The collected cells are then homogenized in ten volumes of 50 mM Tris.HCl (pH 7.4) and 0.5 mM EDTA. The homogenate is centrifuged at 40,000×g for 30.0 min and the precipitate is collected. The obtained pellet is resuspended in 10 volumes of Tris.HCl buffer and recentrifuged at the same speed. The final pellet is suspended in a small volume of Tris.HCl buffer and the tissue protein content is determined in aliquots of 10-25 μl volumes. Bovine Serum Albumin is used as the standard in the protein determination according to the method described in Lowry et al., J. Biol. Chem., 193:265 (1951). The volume of the suspended cell membranes is adjusted to give a tissue protein concentration of 1.0 mg/ml of suspension. The prepared membrane suspension (10 times concentrated) is aliquoted in 1.0 ml volumes and stored at −70° C. until used in subsequent binding experiments.
The reaction is allowed to proceed in the dark for 120 min at room temperature, at which time, the bound ligand-receptor complex is filtered off on a 96 well unifilter with a Packard Filtermate® 196 Harvester. The bound complex caught on the filter disk is allowed to air dry and the radioactivity is measured in a Packard TopCount® equipped with six photomultiplier detectors, after the addition of 40.0 μl Microscint®-20 scintillant to each shallow well. The unifilter plate is heat-sealed and counted in a PackardTopCount® with a tritium efficiency of 31.0%.
Specific binding to the 5-HT6 receptor is defined as the total radioactivity bound less the amount bound in the presence of 10.0 μM unlabeled methiothepin. Binding in the presence of varying concentrations of test compound is expressed as a percentage of specific binding in the absence of test compound. The results are plotted as logit % bound versus log concentration of test compound. Nonlinear regression analysis of data points with a computer assisted program Prism® yields both the IC50 and the Ki values of test compounds with 95% confidence limits.
The amount of displacement by the test compound is given in percent (%) inhibition and is derived from the following equation: [formula] where B0 is the amount of CPM bound in the presence of the testing agent. NSB represents the CPM bound in the presence of a saturating concentration of a displacer and TB represents the total amount of CPM bound at zero (0) concentration of test compound.
Alternatively, a linear regression line of decline of data points is plotted, from which the IC50 value can be read off and the Ki value determined by solving the following equation: [formula] where L is the concentration of the radioactive ligand used and KD is the dissociation constant of the ligand for the receptor, both expressed in nM.

T1 sequence (P50406 whole entry): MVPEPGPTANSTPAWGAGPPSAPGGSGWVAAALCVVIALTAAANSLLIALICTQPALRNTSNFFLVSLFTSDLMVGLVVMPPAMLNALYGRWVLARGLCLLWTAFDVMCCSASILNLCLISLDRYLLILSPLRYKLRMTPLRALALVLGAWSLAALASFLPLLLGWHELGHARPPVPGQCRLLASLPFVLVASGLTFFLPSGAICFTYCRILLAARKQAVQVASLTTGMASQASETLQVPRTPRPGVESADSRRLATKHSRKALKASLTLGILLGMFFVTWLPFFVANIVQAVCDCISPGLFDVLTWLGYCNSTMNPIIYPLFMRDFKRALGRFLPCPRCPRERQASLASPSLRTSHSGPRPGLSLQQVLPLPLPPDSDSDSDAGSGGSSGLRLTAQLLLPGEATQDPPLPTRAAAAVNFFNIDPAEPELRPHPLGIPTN

The molecule `CC(=NNC(=N)N)c1cn(S(=O)(=O)c2ccc(Br)cc2)c2ccccc12` [Example 30, 2-(1-{1-[(4-bromophenyl)sulfonyl]-1H-indol-3-yl}ethylidene)hydrazinecarboximidamide] returned an inhibition at 0.1 µM of 65%.
With `CC(=NNC(=N)N)c1cn(S(=O)(=O)c2cccc3ccccc23)c2ccccc12` [Example 50, 2-{1-[1-(1-naphthylsulfonyl)-1H-indol-3-yl]ethylidene}hydrazinecarboximidamide], at 0.1 µM the inhibition was 63.5%.
Consider `N=C(N)NN=Cc1cn(S(=O)(=O)c2ccccc2)c2ccc(OCc3ccccc3)cc12` [Example 21, 2-{[5-(benzyloxy)-1-(phenylsulfonyl)-1H-indol-3-yl]methylidene}hydrazinecarboximidamide], for which the inhibition at 1 µM came to 57.4%.
The same measure, in the same setting: next, `CC(=NNC(=N)N)c1c(-c2ccc(Cl)cc2)n(S(C)(=O)=O)c2ccccc12` [Example 90, 2-{1-[2-(4-chlorophenyl)-1-(methylsulfonyl)-1H-indol-3-yl]ethylidene}hydrazinecarboximidamide]: 63.5%; `CC(C)C(=NNC(=N)N)c1cn(S(=O)(=O)c2ccccc2)c2ccccc12` [Example 5, 2-{2-methyl-1-[1-(phenylsulfonyl)-1H-indol-3-yl]propylidene}hydrazinecarboximidamide]: 91.5%.
For the molecule `N=C(N)NN=C(c1cn(S(=O)(=O)c2ccc3ccccc3c2)c2ccccc12)C1CC1` [Example 66, 2-{cyclopropyl[1-(2-naphthylsulfonyl)-1H-indol-3-yl]methylidene}hydrazinecarboximidamide], 0.01 µM produced 35.1% inhibition.
The same measure, in the same setting: to `CCCCS(=O)(=O)n1cc(C(=NNC(=N)N)C2CC2)c2cc(Cl)ccc21` [Example 77, 2-[[1-(butylsulfonyl)-5-chloro-1H-indol-3-yl](cyclopropyl)methylidene]hydrazinecarboximidamide] belongs 44.3%.
For `CC(=NNC(=N)N)c1cn(S(=O)(=O)c2cc(Cl)c(Cl)s2)c2ccccc12` [Example 42, 2-(1-{1-[(4,5-dichlorothien-2-yl)sulfonyl]-1H-indol-3-yl}ethylidene)hydrazinecarboximidamide], the inhibition at 0.1 µM was 46.3%.
On the same count and under the same terms, next, `CC(=NNC(=N)N)c1cn(S(=O)(=O)c2cc(Cl)ccc2Cl)c2ccccc12` [Example 40, 2-(1-{1-[(2,5-dichlorophenyl)sulfonyl]-1H-indol-3-yl}ethylidene)hydrazinecarboximidamide]: 33.3%.
Take `COc1ccc(S(=O)(=O)n2cc(C(C)=NNC(=N)N)c3cc(Cl)ccc32)cc1OC` [Example 87, 2-(1-{5-chloro-1-[(3,4-dimethoxyphenyl)sulfonyl]-1H-indol-3-yl}ethylidene)hydrazinecarboximidamide]: the inhibition at 1 µM stood at 88.9%.
Molecule `CC(=NNC(=N)N)c1cn(S(=O)(=O)c2cc(Br)c(Br)s2)c2ccccc12` [Example 39, 2-(1-{1-[(4,5-dibromothien-2-yl)sulfonyl]-1H-indol-3-yl}ethylidene)hydrazinecarboximidamide] displayed an inhibition at 0.1 µM of 62.1%.
For the molecule `CC(=NNC(=N)N)c1cn(S(=O)(=O)c2ccc3ccccc3c2)c2cc(F)ccc12` [Example 109, 2-{1-[6-fluoro-1-(2-naphthylsulfonyl)-1H-indol-3-yl]ethylidene}hydrazinecarboximidamide], the inhibition at 1 µM is 67.8%.
As to `CC(=NNC(=N)N)c1cn(S(=O)(=O)c2cccc3nonc23)c2ccccc12` [Example 25], the inhibition constant (Ki) amounted to 15 nM and at 0.1 µM the inhibition was 79.6%.
`CS(=O)(=O)n1cc(C(=NNC(=N)N)C2CC2)c2cc(Cl)ccc21` [Example 74, 2-[[5-chloro-1-(methylsulfonyl)-1H-indol-3-yl](cyclopropyl)methylidene]hydrazinecarboximidamide] registered an inhibition at 0.1 µM of 68.5%.
On to `CC(=NNC(=N)N)c1cn(S(=O)(=O)c2ccc3ccccc3c2)c2ccccc12` [Example 64, 2-{1-[1-(2-naphthylsulfonyl)-1H-indol-3-yl]ethylidene}hydrazinecarboximidamide], for which the inhibition at 1 µM worked out at 89.6%.
`CCCCS(=O)(=O)n1cc(C(C)=NNC(=N)N)c2cc(Cl)ccc21` [Example 75, 2-{1-[1-(butylsulfonyl)-5-chloro-1H-indol-3-yl]ethylidene}hydrazinecarboximidamide] came in with an inhibition at 0.1 µM of 84.6%.
As to `N=C(N)NN=C(c1cn(S(=O)(=O)c2ccc3ccccc3c2)c2ccc(Cl)cc12)C1CC1` [Example 83, 2-[[5-chloro-1-(2-naphthylsulfonyl)-1H-indol-3-yl](cyclopropyl)methylidene]hydrazinecarboximidamide], the inhibition at 1 µM is 89.3%.
Regarding `CC(=NNC(=N)N)c1cn(S(=O)(=O)c2sc(N)nc2C)c2ccccc12` [Example 22, 2-(1-{1-[(2-amino-4-methyl-1,3-thiazol-5-yl)sulfonyl]-1H-indol-3-yl}ethylidene)hydrazinecarboximidamide], the Ki came out at 8 nM and the inhibition at 0.1 µM came to 90.5%.
`CC(=NNC(=N)N)c1cn(C(=O)c2ccccc2)c2ccccc12` [Example 130, 2-[1-(1-benzoyl-1H-indol-3-yl)ethylidene]hydrazinecarboximidamide]: the inhibition at 0.1 µM is 49.6%.
On the same count and under the same terms, to `CC(=NNC(=N)N)c1cn(S(=O)(=O)c2cccc3c(N(C)C)cccc23)c2ccccc12` [Example 38, 2-[1-(1-{[5-(dimethylamino)-1-naphthyl]sulfonyl}-1H-indol-3-yl)ethylidene]hydrazinecarboximidamide] belongs 25.8%; to `CC(=NNC(=N)N)c1cn(S(=O)(=O)c2ccc(S(C)(=O)=O)cc2)c2ccccc12` [Example 48, 2-[1-(1-{[4-(methylsulfonyl)phenyl]sulfonyl}-1H-indol-3-yl)ethylidene]hydrazinecarboximidamide], 43.9%.
As for `CCCCC(=NNC(=N)N)c1cn(S(=O)(=O)CCCC)c2ccccc12` [Example 59, 2-{1-[1-(butylsulfonyl)-1H-indol-3-yl]pentylidene}hydrazinecarboximidamide], the inhibition at 1 µM was 77.7%.
Consider `CC(=NNC(=N)N)c1cn(S(=O)(=O)c2ccc(-c3ccccn3)s2)c2ccccc12` [Example 53, 2-(1-{1-[(5-pyridin-2-ylthien-2-yl)sulfonyl]-1H-indol-3-yl}ethylidene)hydrazinecarboximidamide], for which the inhibition at 0.1 µM was determined as 38.4%.
Consider `CCCCC(=NNC(=N)N)c1cn(S(=O)(=O)CCCC)c2ccc(Cl)cc12` [Example 76, 2-{1-[1-(butylsulfonyl)-5-chloro-1H-indol-3-yl]pentylidene}hydrazinecarboximidamide], for which the inhibition at 1 µM was found to be 74.5%.
The molecule `CC(=NNC(=N)N)c1cn(S(=O)(=O)c2ccc(Cl)s2)c2ccccc12` [Example 37, 2-(1-{1-[(5-chlorothien-2-yl)sulfonyl]-1H-indol-3-yl}ethylidene)hydrazinecarboximidamide] had an inhibition constant Ki of 25 nM and an inhibition at 0.1 µM of 75.2%.
For `CC(=NNC(=N)N)c1cn(S(C)(=O)=O)c2cc(F)ccc12` [Example 100, 2-{1-[6-fluoro-1-(methylsulfonyl)-1H-indol-3-yl]ethylidene}hydrazinecarboximidamide], in that order: 18 nM and 83.8%.
The molecule `CC(=NNC(=N)N)c1cn(S(=O)(=O)c2c(C)noc2C)c2ccccc12` [Example 43, 2-(1-{1-[(3,5-dimethylisoxazol-4-yl)sulfonyl]-1H-indol-3-yl}ethylidene)hydrazinecarboximidamide] displayed an inhibition at 0.1 µM of 68.9%.
As to `COc1ccc(S(=O)(=O)n2c(-c3ccc(Cl)cc3)c(C(C)=NNC(=N)N)c3ccccc32)cc1OC` [Example 98, 2-(1-{2-(4-chlorophenyl)-1-[(3,4-dimethoxyphenyl)sulfonyl]-1H-indol-3-yl}ethylidene)hydrazinecarboximidamide], the inhibition at 1 µM amounted to 53.3%.
`COc1ccc(S(=O)(=O)n2cc(C(=NNC(=N)N)C3CC3)c3ccc(F)cc32)cc1OC` [Example 117, 2-(cyclopropyl{1-[(3,4-dimethoxyphenyl)sulfonyl]-6-fluoro-1H-indol-3-yl}methylidene)hydrazinecarboximidamide]: the inhibition at 0.1 µM came to 78.2%.

Source of the values: patent US6906095B2, “Indolylalkylidenehydrazine-carboximidamide derivatives as 5-hydroxytryptamine-6 ligands” (Wyeth, priority 2002, dated 2005).
